Target: T1, human MPO (Homo sapiens, UniProt P05164)
T1 sequence (P05164 49-745): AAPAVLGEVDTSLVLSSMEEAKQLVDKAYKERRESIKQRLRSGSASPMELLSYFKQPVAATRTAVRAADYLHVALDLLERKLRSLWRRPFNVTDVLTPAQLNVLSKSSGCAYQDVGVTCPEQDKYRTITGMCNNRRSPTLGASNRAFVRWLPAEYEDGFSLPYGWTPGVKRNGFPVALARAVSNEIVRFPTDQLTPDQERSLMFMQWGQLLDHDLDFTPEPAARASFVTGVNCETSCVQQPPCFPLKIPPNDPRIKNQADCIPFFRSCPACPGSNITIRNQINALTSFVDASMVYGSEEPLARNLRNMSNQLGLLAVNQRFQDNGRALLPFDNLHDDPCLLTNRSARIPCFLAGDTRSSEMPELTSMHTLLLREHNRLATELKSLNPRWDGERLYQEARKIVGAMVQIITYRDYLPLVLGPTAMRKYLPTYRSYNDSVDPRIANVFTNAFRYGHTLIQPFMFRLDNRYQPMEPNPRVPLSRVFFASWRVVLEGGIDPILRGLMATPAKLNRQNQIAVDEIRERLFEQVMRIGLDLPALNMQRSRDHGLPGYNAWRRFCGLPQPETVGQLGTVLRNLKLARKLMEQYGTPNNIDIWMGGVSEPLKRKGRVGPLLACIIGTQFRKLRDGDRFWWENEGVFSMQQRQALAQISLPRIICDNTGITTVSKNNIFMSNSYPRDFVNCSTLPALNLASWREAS
Assay: MPO inhibition screen (TMB oxidation, absorbance)
Format: biochemical
Settings: at least one version of the screen (compound alone or with added tyrosine, 8 μM final); human MPO 2.5 nM, H2O2 100 μM, pH 6.5
Protocol: Methods for the determination of MPO inhibitory activity are disclosed in patent application WO 02/090575. The pharmacological activity of compounds according to the invention was tested in the following screen in which the compound was either tested alone or in the presence of added tyrosine:
Assay buffer: 20 mM sodium/potassium phosphate buffer pH 6.5 containing 10 mM taurine and 100 mM NaCl.
Developing reagent: 2 mM 3,3′,5,5′-tetramethylbenzidine (TMB), 200 μM KI, 200 mM acetate buffer pH 5.4 with 20% DMF.
To 10 μl of diluted compounds in assay buffer, 40 μL of human MPO (final concentration 2.5 nM), with or without 20 μM tyrosine (final concentration, if present, 8 μM), was added and the mixture was incubated for 10 minutes at ambient temperature. Then 50 μl of H2O2 (final concentration 100 μM), or assay buffer alone as a control, were added. After incubation for 10 minutes at ambient temperature, the reaction was stopped by adding 10 μl 0.2 mg/ml of catalase (final concentration 18 μg/ml). The reaction mixture was left for an additional 5 minutes before 100 μl of TMB developing reagent was added. The amount of oxidised 3,3′,5,5′-tetramethylbenzidine formed was then measured after about 5 minutes using absorbance spectroscopy at about […]. IC50 values were then determined using standard procedures.

Which IC50 does the source give for `O=c1[nH]c(=S)n(CCO)c2cc[nH]c12` [Example 1, 1-(2-Hydroxyethyl)-2-thioxo-1,2,3,5-tetrahydro-4H-pyrrolo[3,2-d]pyrimidin-4-one] here?
The IC50 was < 5 µM.

From patent publication US20090124640A1, “Pyrrolo[3,2-D]Pyrimidin-4-One Derivative as Myeloperoxidase Inhibitor” (ASTRAZENECA AB, priority 2006, published 2009)
